Measured values from US20230183237A1, “COMPETITIVE AND NONCOMPETITIVE INHIBITORS OF THE MUSCARINIC ACETYLCHOLINE RECEPTOR M5” (Vanderbilt University, priority 2020, published 2023).
Read-outs that look alike come from different tables or passages of the source.

Target: T1, hM5 (Homo sapiens, UniProt P08912)
T1 construct: expressed in transfected cells
T1 sequence (P08912 1-532): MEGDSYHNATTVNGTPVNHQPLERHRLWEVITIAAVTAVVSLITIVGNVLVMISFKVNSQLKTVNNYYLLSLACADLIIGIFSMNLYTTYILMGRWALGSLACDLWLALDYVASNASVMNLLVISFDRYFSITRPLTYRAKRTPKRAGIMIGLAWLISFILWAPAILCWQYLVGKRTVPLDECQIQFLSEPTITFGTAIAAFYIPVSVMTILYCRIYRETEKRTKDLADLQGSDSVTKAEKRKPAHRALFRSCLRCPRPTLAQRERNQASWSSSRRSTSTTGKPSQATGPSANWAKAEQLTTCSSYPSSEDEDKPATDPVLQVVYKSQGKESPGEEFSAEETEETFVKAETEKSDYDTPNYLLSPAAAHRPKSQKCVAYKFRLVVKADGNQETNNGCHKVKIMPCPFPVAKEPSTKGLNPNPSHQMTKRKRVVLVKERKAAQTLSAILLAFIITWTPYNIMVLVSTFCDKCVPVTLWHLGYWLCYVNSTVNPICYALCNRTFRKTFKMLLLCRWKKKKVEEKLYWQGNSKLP
Assay: Calcium mobilization concentration-response (IC50 vs EC80 acetylcholine), CHO hM5
Type: cell-based
Procedure, shortened: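 CHO cells stably expressing hM5, dye-loaded, in HBSS/20 mM HEPES/2.5 mM probenecid, pH 7.4. Compounds were pre-incubated 140 s before an EC80 acetylcholine challenge, with calcium flux read kinetically.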

[1] = CELL LINE hM5, calcium mobilization, EC80 acetylcholine addition, read-out: IC50
[2] = CELL LINE hM5, vs EC80 acetylcholine, read-out: IC50

| IC50 [1] [nM] | IC50 [2] [nM] | Structure (SMILES) | further results |
| --- | --- | --- | --- |
| > 10000 |  | O=S(=O)(c1ccc2ncsc2c1)N1CCC(c2ccc3ncnn3c2)CC1 [Compound 62, 6-((4-([1,2,4]triazolo[1,5-a]pyridin-6-yl)piperidin-1-yl)sulfonyl)benzo[d]thiazole] |  |
| > 10000 |  | Cc1cc2c(cc1S(=O)(=O)N1CCC(c3nn4ncnc4cc3C)CC1)OCO2 [Compound 183, 7-methyl-6-(1-((6-methylbenzo[d][1,3]dioxol-5-yl)sulfonyl)piperidin-4-yl)-[1,2,4]triazolo[1,5-b]pyridazine] |  |
| 2100 |  | O=S(=O)(c1cc2c(cc1F)OCC2)N1CCC(c2cn3ncnc3cc2C(F)(F)F)CC1 [Compound 110, 6-(1-((6-fluoro-2,3-dihydrobenzofuran-5-yl)sulfonyl)piperidin-4-yl)-7-(trifluoromethyl)-[1,2,4]triazolo[1,5-a]pyridine] |  |
| > 10000 |  | O=S(=O)(c1ccc2c(c1)CCO2)N1CCC(c2cc3ccncc3s2)CC1 [Compound 13, 2-(1-((2,3-dihydrobenzofuran-5-yl)sulfonyl)piperidin-4-yl)thieno[2,3-c]pyridine] |  |
| > 10000 |  | O=S(=O)(c1ccc2c(c1)CCO2)N1CC[C@@H](c2cn(-c3ccc4scnc4c3)nn2)C1 [Compound 59, (R)-5-(4-(1-((2,3-Dihydrobenzofuran-5-yl)sulfonyl)pyrrolidin-3-yl)-1H-1,2,3-triazol-1-yl)benzo[d]thiazole] |  |
| > 10000 |  | Cc1nc2[nH]ccc2nc1C1CCN(S(=O)(=O)c2ccc3c(c2)CCO3)CC1 [Compound 15, 2-(1-((2,3-dihydrobenzofuran-5-yl)sulfonyl)piperidin-4-yl)-3-methyl-5H-pyrrolo[2,3-b]pyrazine] |  |
| 3100 |  | COc1cc2ncnn2cc1C1CCN(S(=O)(=O)c2ccc3c(c2)C(C)CO3)CC1 (stereo not drawn) [Compound 90, 7-methoxy-6-(1-((3-methyl-2,3-dihydrobenzofuran-5-yl)sulfonyl)piperidin-4-yl)-[1,2,4]triazolo[1,5-a]pyridine] |  |
| > 10000 |  | Cc1cc2ncnn2cc1C1CCN(S(=O)(=O)c2ccc3c(cnn3C)c2)CC1 [Compound 175, 7-methyl-6-(1-((1-methyl-1H-indazol-5-yl)sulfonyl)piperidin-4-yl)-[1,2,4]triazoto[1,5-a]pyridine] |  |
| > 10000 |  | Cc1c(C2=CCN(S(=O)(=O)c3ccc4c(c3)CCO4)CC2)cnc2ncnn12 [Compound 244, 6-(1-((2,3-dihydrobenzofuran-5-yl)sulfonyl)-1,2,3,6-tetrahydropyridin-4-yl)-7-methyl-[1,2,4]triazolo[1,5-a]pyrimidine] |  |
| > 10000 |  | Cc1cc2ncnn2cc1C1=CCN(S(=O)(=O)c2ccc3c(c2)CC(C)O3)CC1 (stereo not drawn) [Compound 49, 7-methyl-6-(1-((2-methyl-2,3-dihydrobenzofuran-5-yl)sulfonyl)-1,2,3,6-tetrahydropyridin-4-yl)-[1,2,4]triazolo[1,5-a]pyridine] |  |
| > 10000 |  | Cn1cnc2cc(C3CCN(S(=O)(=O)c4ccc5ncsc5c4)CC3)ccc21 [Compound 8, 6-((4-(1-methyl-1-benzo[d]imidazol-5-yl)piperidin-1-yl)sulfonyl)benzo[d]thiazole] |  |
| > 10000 |  | Cc1cc(C#N)cnc1C1CCN(S(=O)(=O)c2ccc3c(c2)CCO3)CC1 [Compound 218, 6-(1-((2,3-dihydrobenzofuran-5-yl)sulfonyl)piperidin-4-yl)-5-methylnicotinonitrile] |  |

The remaining lines, values behind:

| Structure (SMILES) | IC50 [1] [nM] | IC50 [2] [nM] | further results |
| --- | --- | --- | --- |
| Cc1cc2ncnn2nc1C1CCN(S(=O)(=O)c2cnn(C(F)F)c2C)CC1 [Compound 176, 6-(1-((1-(difluoromethyl)-5-methyl-1H-pyrazol-4-yl)sulfonyl)piperidin-4-yl)-7-methyl-[1,2,4]triazolo[1,5-b]pyridazine] | > 10000 |  |  |
| Cc1ncc(S(=O)(=O)N2CCC(c3c4c(nn3C)CCCC4)CC2)s1 [Compound 593, 2-methyl-5-((4-(2-methyl-4,5,6,7-tetrahydro-2H-indazol-3-yl)piperidin-1-yl)sulfonyl)thiazole] |  | > 10000 |  |
| Cc1ncc(S(=O)(=O)N2CCC(c3cn4ncnc4cc3C(F)F)CC2)o1 [Compound 497, 5-((4-(7-(difluoromethyl)-[1,2,4]triazolo[1,5-a]pyridin-6-yl)piperidin-1-yl)sulfonyl)-2-methyloxazole] |  | 141 |  |
| Cc1ncc(S(=O)(=O)N2CCC(c3cn4ncnc4cc3F)CC2)n1C [Compound 234, 6-(1-((1,2-dimethyl-1H-imidazol-5-yl)sulfonyl)piperidin-4-yl)-7-fluoro-[1,24]triazolo[1,5-a]pyridine] | 407 |  |  |
| O=S(=O)(c1cnn2c1NCCC2)N1CCC(c2cn3ncnc3cc2F)CC1 [Compound 253, 7-fluoro-6-(1-((4,5,6,7-tetrahydropyrazolo[1,5-a]pyrimidin-3-yl)sulfonyl)piperidin-4-yl)-[1,2,4]triazolo[1,5-a]pyridine] | 57 |  |  |
| Cc1cc2ncnn2cc1C1CCN(S(=O)(=O)c2cn(C)c(C)n2)CC1 [Compound 320, 6-(1-((1,2-dimethyl-1H-imidazol-4-yl)sulfonyl)piperidin-4-yl)-7-methyl-[1,2,4]triazolo[1,5-a]pyridine] | 7200 |  |  |
| Cc1ncc(S(=O)(=O)N2CCC(c3ccc4ncnn4c3)CC2)n1C [Compound 286, 6-(1-((1,2-dimethyl-1H-imidazol-5-yl)sulfonyl)piperidin-4-yl)-[1,2,4]triazolo[1,5-a]pyridine] | 2000 |  |  |
| O=S(=O)(c1cnn2ccccc12)N1CCC(c2cn3ncnc3cc2F)CC1 [Compound 521, 7-fluoro-6-(1-(pyrazolo[1,5-a]pyridin-3-ylsulfonyl)piperidin-4-yl)-[1,2,4]triazolo[1,5-a]pyridine] |  | 169 |  |
| CCc1cc2ncnn2cc1C1CCN(S(=O)(=O)c2cnc(Cl)s2)CC1 [Compound 513, 2-chloro-5-((4-(7-ethyl-[1,2,4]triazolo[1,5-a]pyridin-6-yl)piperidin-1-yl)sulfonyl)thiazole] |  | 4770 |  |
| Cn1ncc(S(=O)(=O)N2CCC(c3cc(F)c4ncnn4c3)CC2)c1Cl [Compound 382, 6-(1-((5-chloro-1-methyl-1H-pyrazol-4-yl)sulfonyl)piperidin-4-yl)-8-fluoro-[1,2,4]triazolo[1,5-a]pyridine] | 849 |  |  |
| Cc1c(C2CCN(S(=O)(=O)c3cnn(C)c3C#N)CC2)cn2ncnc2c1F [Compound 438, 4-((4-(8-flooro-7-methyl-[1,2,4]triazolo[1,5-a]pyridin-6-yl)piperidin-1-yl)sulfonyl)-1-methyl-1H-pyrazole-5-carbonitrile] |  | 26 |  |
| Cn1ncc(S(=O)(=O)N2CCC(F)(c3cn4ncnc4cc3F)CC2)c1Cl [Compound 502, 6-(1-((5-chloro-1-methyl-1H-pyrazol-4-yl)sulfonyl)-4-fluoropiperidin-4-yl)-7-fluoro-[1,2,4]triazolo[1,5-a]pyridine] |  | 1630 |  |
| Cc1c(C2=CCN(S(=O)(=O)c3cnn(C)c3C)CC2)cn2ncnc2c1Cl [Compound 380, 8-chloro-6-(1-((1,5-dimethyl-1H-pyrazol-4-yl)sulfonyl)-1,2,3,6-tetrahydropyridin-4-yl)-7-methyl-[1,2,4]triazolo[1,5-a]pyridine] | 37 |  |  |
| Cn1ncc(S(=O)(=O)N2CCC(c3ccncc3)CC2)c1Cl [Compound 364, 4-(1-((5-chloro-1-methyl-1H-pyrazol-4-yl)sulfonyl)piperidin-4-yl)pyridine] | > 10000 |  |  |
| Cc1cc(S(=O)(=O)N2CCC(c3cn4ncnc4cc3CCl)CC2)sn1 [Compound 606, 5-((4-(7-(chloromethyl)-[1,2,4]triazolo[1,5-a]pyridin-6-yl)piperidin-1-yl)sulfonyl)-3-methylisothiazole] |  | 126 |  |
| Cc1ncc(S(=O)(=O)N2CCC(F)(c3cn4ncnc4cc3C)CC2)o1 [Compound 560, 5-((4-fluoro-4-(7-methyl-[1,2,4]triazolo[1,5-a]pyridin-6-yl)piperidin-1-yl)sulfonyl)-2-methyloxazole] |  | 3140 |  |
| Cc1cc2ncnn2cc1C1CC2CCC(C1)N2S(=O)(=O)c1cnn(C)c1C (stereo not drawn) [Compound 191, 6-(8-((1,5-dimethyl-1H-pyrazol-4-yl)sulfonyl)-8-azabicyclo[3.2.1]octan-3-yl)-7-methyl-[1,2,4]triazolo[1,5-a]pyridine] |  |  | IC50: > 10000 nM |
| [2H]C1([2H])CC(c2cn3ncnc3c(F)c2C)CC([2H])([2H])N1S(=O)(=O)c1cnn(C)c1C(F)F [Compound 474, 6-(1-((5-(Difluoromethyl)-1-methyl-1H-pyrazol-4-yl)sulfonyl)piperidin-4-yl-2,2,6,6-d4)-8-fluoro-7-methyl-[1,2,4]triazolo[1,5-a]pyridine] |  | 11 |  |
| Cn1ncc(S(=O)(=O)N2CCC(c3cn4ncnc4cc3F)CC2)c1C(F)F [Compound 231, 6-(1-((5-(difluoromethyl)-1-methyl-1H-pyrazol-4-yl)sulfonyl)piperidin-4-yl)-7-fluoro-[1,2,4]triazolo[1,5-a]pyridine] | 176 |  |  |
| O=S(=O)(c1cnn2c1CCCC2)N1CCC(c2cn3ncnc3cc2Cl)CC1 [Compound 283, 7-chloro-6-(1-((4,5,6,7-tetrahydropyrazolo[1,5-a]pyridin-3-yl)sulfonyl)piperidin-4-yl)-[1,2,4]triazolo[1,5-a]pyridine] | 7.3 |  |  |
| Cn1nc(C2CCN(S(=O)(=O)c3cnn(C)c3Cl)CC2)cc1-c1ccco1 [Compound 591, 1-((5-Chloro-1-methyl-1H-pyrazol-4-yl)sulfonyl)-4-(5-(furan-2-yl)-1-methyl-1H-pyrazol-3-yl)piperidine] |  | > 10000 |  |
